Data from patent US9169254B2, “Spiroimidazolone derivative” (Chugai Seiyaku Kabushiki Kaisha, priority 2009, dated 2015).

These molecules were tested against T1, human PTH1 receptor (Homo sapiens, UniProt Q03431) (assay: In vitro cAMP signal activity in HKRK-B7 cells (LLC-PK1 cells overexpressing the human PTH1 receptor)). Settings: HKRK-B7 cells; compound at 1×10^−3 M; cAMP produced as percentage of that produced by hPTH(1-34) at 100 nM.
T1 sequence (Q03431 27-593): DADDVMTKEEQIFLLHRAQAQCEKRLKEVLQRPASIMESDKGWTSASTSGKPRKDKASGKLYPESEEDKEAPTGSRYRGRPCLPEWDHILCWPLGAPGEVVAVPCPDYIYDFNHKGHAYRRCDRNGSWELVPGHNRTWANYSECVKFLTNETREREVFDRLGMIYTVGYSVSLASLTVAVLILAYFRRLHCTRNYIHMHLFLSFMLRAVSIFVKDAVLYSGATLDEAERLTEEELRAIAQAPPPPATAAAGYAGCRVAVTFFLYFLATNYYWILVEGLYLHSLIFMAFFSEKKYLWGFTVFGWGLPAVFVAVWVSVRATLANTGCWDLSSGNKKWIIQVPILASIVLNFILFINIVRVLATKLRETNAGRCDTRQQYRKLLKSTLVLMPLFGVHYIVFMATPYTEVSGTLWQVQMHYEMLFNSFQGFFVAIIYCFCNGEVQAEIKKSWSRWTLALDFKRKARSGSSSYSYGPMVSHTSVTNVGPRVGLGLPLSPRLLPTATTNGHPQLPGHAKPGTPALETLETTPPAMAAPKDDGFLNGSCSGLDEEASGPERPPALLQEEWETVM
Type: cell-based

| Structure (SMILES) | cAMP production activity (%) |
| --- | --- |
| Cc1cc(C(=O)N2CCC(O)(CF)CC2)cc(C)c1CCS(=O)(=O)N1CCC2(CC1)N=C(c1ccc(C(F)(F)F)c(OCC(F)(F)C(F)F)c1)NC2=O [Compound 1279, 8-{2-[4-(4-fluoromethyl-4-hydroxy-piperidine-1-carbonyl)-2,6-dimethyl-phenyl]-ethanesulfonyl}-2-[3-(2,2,3,3-tetrafluoro-propoxy)-4-trifluoromethyl-phenyl]-1,3,8-triaza-spiro[4.5]dec-1-en-4-one] | 113% |
| O=C1NC(C2CCCCC2)=NC12CCN(S(=O)(=O)CCCc1ccccc1O)CC2 [Compound 318, 2-cyclohexyl-8-[3-(2-hydroxy-phenyl)-propane-1-sulfonyl]-1,3,8-triaza-spiro[4.5]dec-1-en-4-one] | 52% |
| Cc1cc(N(CCO)S(C)(=O)=O)ccc1/C=C/S(=O)(=O)N1CCC2(CC1)N=C(c1cccc(OC(F)(F)F)c1)NC2=O [Compound 719, N-(2-Hydroxy-ethyl)-N-(3-methyl-4-{(E)-2-[4-oxo-2-(3-trifluoromethoxy-phenyl)-1,3,8-triaza-spiro[4.5]dec-1-ene-8-sulfonyl]-vinyl}-phenyl)-methanesulfonamide] | 77% |
| Cc1cc(N(C)C(N)=O)cc(C)c1CCS(=O)(=O)N1CCC2(CC1)N=C(c1ccc(Cl)c(C(F)(F)F)c1)NC2=O [Compound 1150, 1-(4-{2-[2-(4-Chloro-3-trifluoromethyl-phenyl)-4-oxo-1,3,8-triaza-spiro[4.5]dec-1-ene-8-sulfonyl]-ethyl}-3,5-dimethyl-phenyl)-1-methyl-urea] | 107% |
| CC(=O)N(C)c1c(C)cc(/C=C/S(=O)(=O)N2CCC3(CC2)N=C(C2CCC(C)CC2)NC3=O)cc1C (stereo not drawn) [Compound 584, N-(2,6-dimethyl-4-{(E)-2-[2-(4-methyl-cyclohexyl)-4-oxo-1,3,8-triaza-spiro[4.5]dec-1-ene-8-sulfonyl]-vinyl}-phenyl)-N-methyl-acetamide] | 24% |
| Cc1cc(N2CCOCC2=O)cc(C)c1/C=C/S(=O)(=O)N1CCC2(CC1)N=C(C1CCC(CCC(F)(F)F)CC1)NC2=O (stereo not drawn) [Compound 550, 8-{(E)-2-[2,6-dimethyl-4-(3-oxo-morpholin-4-yl)-phenyl]-ethenesulfonyl}-2-[4-(3,3,3-trifluoro-propyl)-cyclohexyl]-1,3,8-triaza-spiro[4.5]dec-1-en-4-one] | 124% |
| CCCCS(=O)(=O)N1CCC2(CC1)N=C(c1ccc(Cl)cc1Cl)NC2=O [Compound 46, 8-(butane-1-sulfonyl)-2-(2,4-dichloro-phenyl)-1,3,8-triaza-spiro[4.5]dec-1-en-4-one] | 17% |
| O=C1NC(C2CCC(CF)CC2)=NC12CCN(S(=O)(=O)c1cccc(Cl)c1)CC2 (stereo not drawn) [Compound 27, 8-(3-chloro-benzenesulfonyl)-2-(4-fluoromethyl-cyclohexyl)-1,3,8-triaza-spiro[4.5]dec-1-en-4-one] | 42% |
| Cc1cc(N(C)C(N)=O)cc(C)c1/C=C/S(=O)(=O)N1CCC2(CC1)N=C(CCCCCCCCCCCC(=O)O)NC2=O [Compound 1131, 12-(8-{(E)-2-[2,6-Dimethyl-4-(1-methyl-ureido)-phenyl]-ethenesulfonyl}-4-oxo-1,3,8-triaza-spiro[4.5]dec-1-en-2-yl)-dodecanoic acid] | 96% |
| Cc1cc(C2=NC3(CCN(S(=O)(=O)/C=C/c4c(C)cc(C(=O)N5CCC(O)(CF)CC5)cc4C)CC3)C(=O)N2)c(C)cc1F [Compound 1239, 2-(4-Fluoro-2,5-dimethyl-phenyl)-8-{(E)-2-[4-(4-fluoromethyl-4-hydroxy-piperidine-1-carbonyl)-2,6-dimethyl-phenyl]-ethenesulfonyl}-1,3,8-triaza-spiro[4.5]dec-1-en-4-one] | 91% |
| Cc1cc(C(=O)N(C)C)ccc1CCS(=O)(=O)N1CCC2(CC1)N=C(c1nccn1C)NC2=O [Compound 122, 3,N,N-trimethyl-4-{2-[2-(1-methyl-1H-imidazol-2-yl)-4-oxo-1,3,8-triaza-spiro[4.5]dec-1-ene-8-sulfonyl]-ethyl}-benzamide] | 3.0% |
| CC(=O)N(C)c1cc(C)c(CCS(=O)(=O)N2CCC3(CC2)N=C(CCCCCCCCC(F)(F)F)NC3=O)c(C)c1 [Compound 1047, N-(3,5-dimethyl-4-{2-[4-oxo-2-(9,9,9-trifluoro-nonyl)-1,3,8-triaza-spiro[4.5]dec-1-ene-8-sulfonyl]-ethyl}-phenyl)-N-methyl-acetamide] | 82% |
| Cc1cc(C(=O)N(C)C)ccc1CCS(=O)(=O)N1CCC2(CC1)N=C(c1ccc(Cl)cc1C)NC2=O [Compound 128, 4-{2-[2-(4-chloro-2-methyl-phenyl)-4-oxo-1,3,8-triaza-spiro[4.5]dec-1-ene-8-sulfonyl]-ethyl}-3,N,N-trimethyl-benzamide] | 57% |
| Cc1cc(C(=O)N(C)C)ccc1CCS(=O)(=O)N1CCC2(CC1)N=C(c1ccc(Cl)cc1F)NC2=O [Compound 129, 4-{2-[2-(4-chloro-2-fluoro-phenyl)-4-oxo-1,3,8-triaza-spiro[4.5]dec-1-ene-8-sulfonyl]-ethyl}-3,N,N-trimethyl-benzamide] | 3.7% |
| Cc1cc(C(=O)N2CCC[C@@H]2CO)ccc1CCS(=O)(=O)N1CCC2(CC1)N=C(c1cccc(C(F)(F)F)c1)NC2=O [Compound 371, 8-{2-[4-((R)-2-hydroxymethyl-pyrrolidine-1-carbonyl)-2-methyl-phenyl]-ethanesulfonyl}-2-(3-trifluoromethyl-phenyl)-1,3,8-triaza-spiro[4.5]dec-1-en-4-one] | 72% |
| Cc1cc2ccc1CCS(=O)(=O)N1CCC3(CC1)N=C(NC3=O)c1cc(cc(C(F)(F)F)c1)OCCC/C=C\NC(=O)CN(C)C2=O [Compound 1423] | 17% |
| O=C1NC(C2CCCCC2)=NC12CCN(S(=O)(=O)/C=C/c1cc3nc[nH]c3cc1C(F)(F)F)CC2 [Compound 499, 2-cyclohexyl-8-[(E)-2-(6-trifluoromethyl-1H-benzimidazol-5-yl)-ethenesulfonyl]-1,3,8-triaza-spiro[4.5]dec-1-en-4-one] | 40% |
| Cc1cc(C(=O)N(C)C)ccc1-c1ccc(S(=O)(=O)N2CCC3(CC2)N=C(c2cccc(OC(F)(F)F)c2)NC3=O)cc1 [Compound 336, 2-methyl-4′-[4-oxo-2-(3-trifluoromethoxy-phenyl)-1,3,8-triaza-spiro[4.5]dec-1-ene-8-sulfonyl]-biphenyl-4-carboxylic acid dimethylamide] | 28% |
| CN1CCN(C(=O)NCc2ccc(/C=C/S(=O)(=O)N3CCC4(CC3)N=C(C3CCCCC3)NC4=O)cc2)CC1 [Compound 567, 4-methyl-piperazine-1-carboxylic acid 4-[(E)-2-(2-cyclohexyl-4-oxo-1,3,8-triaza-spiro[4.5]dec-1-ene-8-sulfonyl)-vinyl]-benzylamide] | 24% |
| CCCCCCCCCC1=NC2(CCN(S(=O)(=O)CCc3c(C)cc(C(=O)N4CC[C@@H](O)C4)cc3C)CC2)C(=O)N1 [Compound 981, 8-{2-[4-((R)-3-hydroxy-pyrrolidine-1-carbonyl)-2,6-dimethyl-phenyl]-ethanesulfonyl}-2-nonyl-1,3,8-triaza-spiro[4.5]dec-1-en-4-one] | 106% |
| Cc1cc2ccc1CCS(=O)(=O)N1CCC3(CC1)N=C(NC3=O)c1cc(cc(C(F)(F)F)c1)OCC/C=C/COCCN(C)C2=O [Compound 1420] | 20% |
